# Laboratory results: patent US5942494A, “Stimulation of gene expression and synthesis of heat shock protein 72/73 (HSP 70)” (The Trustees of Columbia University in the City of New York, priority 1996, dated 1999)
# Square brackets hold non-standard residues; d marks the D form. Peptide text beside a SMILES is read from it. Nle = CCCC[C@H](N)C(=O)O
# Key:
# [1] = system: protein of about 80-90 kDa; assay: Whole-cell protein pattern of [3H]-leucine-labeled HepG2 lysates on SDS-PAGE; assay type: cell-based, human; conditions: ALLN-treated versus control HepG2 cells, FIG. 2A
# Text: It was reported (Liu, et al., 1989) that in human diploid fibroblasts, heat shock treatment could induce the synthesis of several members of the Hsp family, including Hsp25, Hsp50, Hsp64, Hsp72, Hsp78, Hsp89 and Hsp98. Short, sublethal episodes of cardiac ischemia increase both Hsp70 and Hsp60 (Marber, et al., 1988). Such complex induction patterns may reflect an increased requirement for several of these Hsps, i.e., the need for several of these Hsps to increase, in order to prevent or protect pre-existing proteins from denaturation. […] It would be interesting to characterize this polypeptide and to identify its roles in the ALLN-induced cellular response.
# [2] = system: human microvascular endothelial cell line; assay: TCA-cpm measurement in human microvascular endothelial cell line; assay type: cell-based; conditions: ALLN 40 μg/ml, 4 hours, 30 min. labeling
# Hsp90 = assay: Immunoprecipitation of Hsp90 from radiolabeled HepG2 cells; assay type: cell-based, human; conditions: HepG2, ALLN 4 hours
# Method: (§1) FIGS. 7A-7B: Effects of ALLN on the biosynthesis of other members of Hsp family and related proteins. HepG2 cells were pre-treated and radiolabeled with or without ALLN for 4 hours as described in FIG. 1. Cell lysates were used for SDS-PAGE (A), or for immunoprecipitation with anti-Hsp25, -Hsp27, -Hsp60, -Hsp70, -Hsp86, -Hsp90, -Hsp104, -Bip, or -albumin antibodies respectively (1 μg/ml) (B). Because the anti-Hsp25, -Hsp27, -Hsp60 and Hsp90 antibodies are from a rat source, rabbit anti-rat IgG antibody was added after the first incubation, and the incubation was extended for another 1 hour at 4° C. before collection with protein A-Sepharose.Immunoprecipitates were loaded for SDS-PAGE and aliquoted for scintillation counting and plotting. Each value was presented as mean ±S.D. from three individual culture dishes.
# (§2) HepG2 cells were preincubated for 4 hours in serum-free MEM and then radiolabeled with ^3 H-Leucine (150 μCi/ml) in a serum-free, leucine-free medium. […] Cell lysates containing equal amounts of trichloroacetic acid (TCA)-insoluble radioactivity were used for immunoprecipitations by incubating with individual monoclonal antibody (1 μg/ml) for 2.5 hours at 4° C. […]
# HepG2 cells = assay: Total incorporation of radiolabel (TCA cpm) as indicator of cell toxicity, HepG2; assay type: cell-based, human; conditions: ALLN 10 μg/ml, HepG2
# Method: (§3) HepG2 cells were preincubated for 4 hours in serum-free MEM and then radiolabeled with ^3 H-Leucine (150 μCi/ml) in a serum-free, leucine-free medium. Preincubation and labeling media each contained either 1.5% bovine serum albumin (BSA) alone, or BSA plus ALLN (40 μg/ml except as otherwise indicated), or BSA plus other protease inhibitors at concentrations indicated in the figure legends. At the indicated times, cells were removed from the 37° C. incubator and placed on ice, washed with cold phosphate-buffer saline (PBS) twice and lysed with lysis buffer containing 1% Triton X-100 (TX100), 1% deoxycholic acid (DOC) and 0.1% SDS in PBS containing proteinase inhibitors: 2 mM phenylmethylsulfonyl fluoride (PMSF); 2 μg/ml ALLN; 2 μg/ml leupeptin; and 2 μg/ml aprotinin. After a 30 min. incubation with lysis buffer at 4° C., the lysates were centrifuged at 14,000 g in a microcentrifuge for 5 min., and the supernatants were adjusted to 1% SDS concentration and boiled for 5 min. to denature the proteins. 1% TX100 was then added to dilute the lysates to a final concentration of 0.1% SDS. Cell lysates containing equal amounts of trichloroacetic acid (TCA)-insoluble radioactivity were used for immunoprecipitations by incubating with individual monoclonal antibody (1 μg/ml) for 2.5 hours at 4° C. Protein-A Sepharose 4B was added afterwards and the lysates incubated for another 1.5 hours at 4° C. to collect the immunocomplexes. After washing four times with 1×NET buffer (containing 0.5% TX100, 0.1% SDS), the immunocomplexes were mixed with sample buffer and boiled for 5 min. Following centrifugation, the supernatants were aliquoted for scintillation counting and for 3-15% gradient polyacrymide gel electrophoresis (SDS-PAGE) . The gels were later subjected to fluorography. All values are presented as the mean ± S.D. from three individual experiments except as otherwise indicated.
# Hsp104 = assay: Immunoprecipitation of Hsp104 from radiolabeled HepG2 cells; assay type: cell-based, human; conditions: HepG2, ALLN 4 hours
# Method: as §1, §2
# Hsp70 [3] = assay: Hsp70 level in human microvascular endothelial cell line; assay type: cell-based; conditions: ALLN 40 μg/ml, 4 hours, 30 min. labeling
# Method: ALLN induces Hsp70 protein levels in HepG2 cells in a dose-dependent manner. The effect of ALLN on the protein levels of Hsp70 was analysed by denaturing immunoprecipitation of extracts of [^3 H]-leucine radiolabeled HepG2 cells which had been pre-treated with ALLN for 4 hours at different doses. Denaturing immunoprecipitation was chosen because Hsp70 is a major cytosolic chaperone protein and it is co-immunoprecipitated with a number of other proteins under non-denaturingconditions (Beckmann, et al., 1990; Zhou, et al., 1995). […] This may be due to a low constitutive level of expression of Hsp73 (Hsp70) in HepG2 cells similar to that reported for other cell types in the absence of stress (Welch, et al., 1984). Treatment with ALLN was associated with a marked increase in Hsp70 level, which was further confirmed as Hsp72 (the inducible form) by Western blot (data not shown).
# Hsp70 [4] = assay: Hsp70 levels by denaturing immunoprecipitation of [3H]-leucine radiolabeled HepG2 cells; assay type: cell-based, human; conditions: for Hsp70 levels after removal of ALLN: 4-hour preincubation
# Method: The HepG2 cell culture conditions were maintained as previously described (Dixon, et al., 1991). The cells were seeded into collagen-pre-coated dishes or six-well tissue culture plates and grown in complete medium containing minimum essential medium (MEM) with 0.1 mM nonessential amino acids, 1.0 mM sodium pyruvate, penicillin/streptomycin, and 10% fetal bovine serum. Cells were fed fresh complete medium every 3 days and maintained in a 5% CO2 incubator. All experiments were performed by using exponentially growing cells at 90-95% confluency. For heat shock treatment, the dishes were sealed with Parafilm and immersed in a water bath at 42° C. for indicated durations of time. Cells were incubated with ALLN alone at indicated concentrations or combined with other chemicals at 37° C. Cells were also incubated with different protease inhibitors alone at indicated concentrations or combined with other chemicals at 37° C.
# as §3
# Denaturing immunoprecipitation was chosen because Hsp70 is a major cytosolic chaperone protein and it is co-immunoprecipitated with a number of other proteins under non-denaturingconditions (Beckmann, et al., 1990; Zhou, et al., 1995).
compound,measurement,setting,value
"CCCC[C@@H](C=O)NC(=O)[C@H](CC(C)C)NC(=O)[C@H](CC(C)C)NC(C)=O [ALLN, N-acetyl-leucyl-leucyl-norleucinal] (Ac-Leu-Leu-[Nle]-aldehyde)",Synthesis of a protein of about 80-90 kDa,[1],also increased
same,TCA-cpm measurement,[2],no change
same,Effect on Hsp90,Hsp90,no effects
same,"Cell total incorporation of radiolabel (TCA cpm, an indicator of cell toxicity)",HepG2 cells,did not change significantly
same,Effect on Hsp104,Hsp104,no effects
same,Increment of Hsp70 level,Hsp70 [3],35 fold
same,Hsp70 levels after removal of ALLN,Hsp70 [4]; end of a 2-hour wash,25 fold
same,Hsp70 levels after removal of ALLN,Hsp70 [4]; end of a 6-hour wash,8 fold
same,Hsp70 levels after removal of ALLN,Hsp70 [4]; end of an 8-hour wash,4 fold
same,Increment of newly synthesized Hsp70 levels compared with untreated cells,"Hsp70 [4]; 30 min. labeling, data from several experiments",~30 fold
same,Hsp70 levels induced,"Hsp70 [4]; ALLN 10 μg/ml, 4 hours pre-treatment, HepG2",more than 9 fold
same,Increase of rate of incorporation of [3H]-leucine into Hsp70,"Hsp70 [4]; ALLN 40 μg/ml 4 hours preincubation, labeling 10-60 min, every time point",about 25 fold
same,Induction of Hsp70 by protease inhibitors,"Hsp70 [4]; HepG2, 4 hours pre-treatment, ALLN, ALLM 40 μg/ml, leupeptin, pepstatin A 50 μg/ml, E-64d 25 μg/ml, PMSF 1 mM, aprotinin 100 KIU/ml, Benz 1 mM, CIP 200 μM",significantly induce
same,Induction of Hsp70 levels above baseline,"Hsp70 [4]; HepG2 cells and human endothelial cells, maximal induction",up to 30 fold
